Results taken from patent publication US20230372364A1, “METHOD OF TREATING GABA MEDIATED DISORDERS” (Eliem Therapeutics (UK) Ltd, priority 2020, published 2023).

How the values were obtained:
[1] = target: kappa opioid receptor (Homo sapiens, UniProt P41145); assay: Activity at the kappa opioid receptor; details: previously shown
Source text: (§1) The compound of Formula (I) is believed to have binding affinity at the GABA-gated Cl-channel, the kappa opioid receptor, the 5-HT2A receptor, and the androgen receptor. The compound of Formula (I) has previously shown activity at all 18 GABAA receptor channels and the kappa opioid receptor. The compound of Formula (I) had previously shown no activity at the 5-HT2A receptor. Activity at the androgen receptor is has not yet been well studied.

[2] = tested on: rats; assay: Sleep states by electroencephalogram (EEG) in rats; format: in vivo, rat
Method: The effect of CV-10155 on various sleep states was analyzed in rats. Rats were given various doses of CV-10155, and sleep states were analyzed by electroencephalogram (EEG).

[3] = tested on: rats; assay: Repeat-dose toxicity up to four weeks, rats; format: in vivo, rat
Method: The no-observed-adverse-effect-level doses were 7.5/mg/kg/day and 6 mg/kg/day in rats and dogs, respectively.
(§2) Justification for Dose—Based on the nonclinical toxicology data, there is not an unreasonable risk of adverse effects. Using the FDA guidance “Estimating the Maximum Safe Starting Dose in Initial Clinical Trials for Therapeutics in Adult Healthy Volunteers” (July, 2005), the calculated human equivalent dose would be 1/2 mg/kg/day or 3/24 mg/kg/day, respectively, based on the 28-day rat no-observed-adverse-effect-level dose of 7.5 mg/kg/day or the 28-day dog no-observed-adverse-effect-level dose of 6 mg/kg/day, respectively. For both species the no-observed-adverse-effect-level dose was the highest dose tested. For a 60 kg participant, this would result in a maximum safe starting dose of (human equivalent dose/10) of 7.2 mg/day or 19/6 mg/day. The starting doses in this Phase 1 study are 5 mg, equivalent to […] for a 60 kg participant. […] These anticipated Cmax and AUC values are ˜80- and 50-fold lower, respectively, than that observed at the no-observed-adverse-effect-level dose in dogs.

[4] = Human equivalent dose and allometric scaling of anticipated human exposure; details: 60 kg participant
Method: as §2

[5] = Single ascending oral dose pharmacokinetics in humans; format: in vivo; details: human
Method: The pharmacokinetic properties of CV-10155 in humans were analyzed. Subjects were given a single oral dose of CV-10155, and plasma concentrations were measured at various time points. Various dosages were given to fasting subjects, and 30 mg dose was given to a subjects in a fed state.
FIG. 15 is a graph of the average plasma concentration of CV-10155 following oral administration to humans. Purple circles represent 5 mg, fasted; green diamonds represent 15 mg, fasted; red squares represent 30 mg fasted; blue triangles represent 30 mg, fed; purple crosses represent 60 mg, fasted; teal 5-pointed stars represent 90 mg, fasted; olive 6-pointed stars represent 135 mg, fasted; and brown 10-pointed stars represent 200 mg fasted.
FIG. 16 is a graph of the average plasma concentration of CV-10155 following oral administration of a 30 mg dose to humans. Blue triangles represent fasted; and red circles represent fed.
The pharmacokinetic properties of CV-10155 and Sage-217 in humans were compared. The day 7 from subjects given either 60 mg CV-10155 in the morning in a fasted state or 30 mg Sage-217 were analyzed. Results from multiple ascending dose studies are shown in Table 10, and results from single ascending dose studies are shown in Table 11.

[6] = tested on: all 18 GABAA receptor channels; assay: Activity at GABAA receptor channels; details: previously shown
Source text: as §1

[7] = 60 mg once daily for seven days, pharmacokinetics in humans (MAD); details: human
[8] = tested on: rodent models; assay: Tolerability in rodent models; format: in vivo; details: at efficacious doses
Source text: The compound of Formula (I) is also believed to show antiepileptic activity in maximal electroshock and pentylenetetrazol seizure models, antidepressant properties in the forced swim test, and anxiolytic properties in the elevated plus maze test.

[9] = Further pharmacokinetic analysis of Phase 1 human dosing exposure studies; format: in vivo
[10] = target: α4β3δ Extra synaptic receptors (GABAA) (Homo sapiens, UniProt P28472+P48169); assay: GABAA receptor potency and efficacy (EC50, Emax), α4β3δ; format: cell-based
Chain of α4β3δ Extra synaptic receptors (GABAA) (P48169 36-554): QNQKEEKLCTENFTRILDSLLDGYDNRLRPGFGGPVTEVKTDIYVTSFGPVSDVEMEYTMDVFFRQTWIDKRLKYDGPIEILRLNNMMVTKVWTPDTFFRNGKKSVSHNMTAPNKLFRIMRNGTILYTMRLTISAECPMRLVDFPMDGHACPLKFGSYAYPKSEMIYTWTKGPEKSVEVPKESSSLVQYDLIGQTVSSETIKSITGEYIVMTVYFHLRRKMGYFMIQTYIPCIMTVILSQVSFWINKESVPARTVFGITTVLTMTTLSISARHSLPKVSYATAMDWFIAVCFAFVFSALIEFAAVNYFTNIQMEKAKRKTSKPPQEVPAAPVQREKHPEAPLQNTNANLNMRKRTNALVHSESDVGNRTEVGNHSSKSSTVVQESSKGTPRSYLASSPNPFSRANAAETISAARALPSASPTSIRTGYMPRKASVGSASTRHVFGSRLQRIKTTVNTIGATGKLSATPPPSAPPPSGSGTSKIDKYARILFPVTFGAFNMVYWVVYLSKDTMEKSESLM
Chain of α4β3δ Extra synaptic receptors (GABAA) (P28472 26-473): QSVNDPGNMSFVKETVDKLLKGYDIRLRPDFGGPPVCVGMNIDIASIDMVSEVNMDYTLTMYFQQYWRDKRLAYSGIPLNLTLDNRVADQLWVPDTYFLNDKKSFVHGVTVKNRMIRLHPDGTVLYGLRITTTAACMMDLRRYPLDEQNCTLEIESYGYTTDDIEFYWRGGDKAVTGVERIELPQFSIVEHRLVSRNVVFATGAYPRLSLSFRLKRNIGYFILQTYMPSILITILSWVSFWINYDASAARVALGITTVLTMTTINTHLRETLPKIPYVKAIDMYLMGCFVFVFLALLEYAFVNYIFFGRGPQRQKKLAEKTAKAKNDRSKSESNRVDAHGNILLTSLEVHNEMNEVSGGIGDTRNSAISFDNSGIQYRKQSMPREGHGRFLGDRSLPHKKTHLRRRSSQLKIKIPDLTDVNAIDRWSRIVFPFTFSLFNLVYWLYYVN
Chain of α4β3δ Extra synaptic receptors (GABAA) (O14764 25-452 partner): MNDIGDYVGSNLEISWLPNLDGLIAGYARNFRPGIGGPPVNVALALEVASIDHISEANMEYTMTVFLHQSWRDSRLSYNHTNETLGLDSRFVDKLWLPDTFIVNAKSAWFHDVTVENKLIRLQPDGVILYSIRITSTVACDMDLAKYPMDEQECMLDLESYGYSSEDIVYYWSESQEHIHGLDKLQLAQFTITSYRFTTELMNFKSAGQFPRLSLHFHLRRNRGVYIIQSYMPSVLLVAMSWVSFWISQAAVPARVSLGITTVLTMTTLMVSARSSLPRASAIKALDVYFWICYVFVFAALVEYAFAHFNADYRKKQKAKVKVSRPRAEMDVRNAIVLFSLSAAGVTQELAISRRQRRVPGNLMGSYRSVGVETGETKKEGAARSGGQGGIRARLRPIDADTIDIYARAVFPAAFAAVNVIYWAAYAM

[11] = tested on: human subjects; assay: Single ascending oral dose safety and tolerability in humans; format: in vivo

Chain of kappa opioid receptor (P41145 whole entry): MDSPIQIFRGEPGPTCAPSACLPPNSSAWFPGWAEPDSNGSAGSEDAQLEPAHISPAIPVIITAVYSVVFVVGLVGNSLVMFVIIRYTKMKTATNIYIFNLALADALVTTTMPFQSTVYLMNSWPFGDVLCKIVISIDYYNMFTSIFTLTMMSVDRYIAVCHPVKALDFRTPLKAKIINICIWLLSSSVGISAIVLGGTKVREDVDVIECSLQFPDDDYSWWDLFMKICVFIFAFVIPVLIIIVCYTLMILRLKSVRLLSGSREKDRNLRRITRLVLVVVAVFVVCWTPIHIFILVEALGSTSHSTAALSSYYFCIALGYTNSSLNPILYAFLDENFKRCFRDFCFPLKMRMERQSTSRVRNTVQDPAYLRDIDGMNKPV

## C[C@@]1(O)CC[C@@]2(C)[C@@H](CC[C@@H]3[C@@H]2CC[C@]2(C)[C@@H](C(=O)Cn4cc(C#N)cn4)CC[C@@H]32)C1 [CV-10155, 1-[2-[(3R,5S,8R,9S,10S,13S,14S,17S)-3-hydroxy-3,10,13-trimethyl-1,2,4,5,6,7,8,9,11,12,14,15,16,17-tetradecahydrocyclopenta[a]phenanthren-17-yl]-2-oxoethyl]pyrazole-4-carbonitrile]
[1]
  activity at the kappa opioid receptor: activity
[2]; doses 1, 3, 6, 10 mg/kg
  dose producing an increase in non-REM sleep: ≥ 3 mg/kg
[2]; within well-tolerated and efficacious dose ranges
  target engagement: dose-dependent target engagement
[3]; mid and high dose levels, species not specified (rats and dogs program)
  primary effects observed in repeat-dose toxicity: ataxia and prostration
[3]; rats, 28-day repeat dose
  no-observed-adverse-effect-level dose: 7.5 mg/kg/day
[4]; from dog NOAEL
  maximum safe starting dose (human equivalent dose/10): 19/6
[4]; from rat NOAEL
  maximum safe starting dose (human equivalent dose/10): 7.2 mg/day
[5]; 30 mg oral, fed vs fasted
  effect of food consumption on absorption: no clinically meaningful effect
[5]; 135 mg SAD MTD
  Tmax: 2.83 h
[5]; single oral dose, 5-200 mg
  Tmax: 2 to 4 h
  half-life: 24 to 26 h
  inter-subject variability (CV) of AUC and Cmax: ≤ 30%
[5]; single oral dose, 5-200 mg dose range
  dose proportionality of AUC and Cmax: dose-proportional increase
[6]
  activity at all 18 GABAA receptor channels: activity
[7]; 60 mg daily in the evening in a fed state
  ratio of Cmax/trough on day 7: 3.47
[7]; 60 mg daily in the morning in a fasted state
  ratio of Cmax/trough on day 7: 6.09
[7]; 60 mg oral once per day for seven days
  difference in absorption, morning fasted vs evening fed: no significant difference
[7]; 60 mg, day 7 MAD, morning dosing
  Ratio (Cmax/Cmin): 6.07
[7]; plasma, oral, 60 mg
  AUC0-inf: 2900 ng·h/mL
  concentration at 7 day: 41.5 ng/mL
[8]
  tolerability in rodent models: well tolerated
[9]
  elimination in urine: < 1 % of the dose
[9]; once daily administration
  accumulation ratio based on AUC: approximately 2
[9]; once daily administration, visual inspection of mean concentrations
  daily dose by which steady state was achieved: eighth
[9]; plasma, Phase 1, after oral administration
  Tmax: 3 to 4 h
[9]; plasma, oral, Phase 1, both after single and repeat administration, read-out: terminal half-life (converted)
  half-life: ~40 h
[10]
  fold higher efficiency at extra synaptic vs. synaptic channels: 3 fold
[10]; isomerically pure compositions
  preferential modulation of α4β3δ subtype compared to α1β2γ2 subtype: preferentially modulate
[11]
  dose-limiting adverse event: Ataxia
[11]; single ascending dose
  SAD MTD: ETX-155 135 mg SAD MTD
[11]; single oral dose 200 mg, fasted
  adverse events observed at 200 mg: ataxia, tremor and tachycardia
[11]; single oral dose, mild to moderate, only observed at the highest doses
  most common adverse events: Dizziness and somnolence
[11]; single oral dose, range of 5-135 mg
  dose-limiting adverse events: No dose-limiting adverse events were observed
